The subject of assay [1] is mouse leukemia L1210 culture cell. Briefly: Proliferation inhibiting action against mouse leukemia L1210 culture cells. Format: cell-based. Here is the method: (§1) For example, […] of L1210 cells were inoculated, on RPM 11640 medium (Rosewellberg Research Institute) containing 20% bovine serum and the compound of the present invention was supplemented in a concentration of 0.0005 to 0.25 μg/ml followed by culturing at 37° C. in a carbon dioxide gas incubator. A 50% proliferation inhibiting concentration was determined as compared to control. Further the aforesaid L1210 culture cells were suspended in 8×10^5 cells/ml in RPM 11640 medium containing 10% bovine serum. After culturing at 37° C. for 1 to 2 hours in a carbon dioxide gas incubator, the compound of the present invention was supplemented in various concentrations. Fifteen minutes after, ^14 C-uridine (0.05 μCi/ml) or ^14 C-thymidine (0.05 μCi/ml) was added to the system followed by culturing at 37° C. for 60 minutes. To the reaction mixture was added chilled 10% trichloroacetic acid to discontinue the reaction. At the same time, insoluble matters were precipitated, further washed twice with chilled 5% trichloroacetic acid and then dissolved in formic acid to provide for measurement of the radioactivity. A 50% intake inhibiting concentration was determined from a rate of intake of the radioactivity in the control group added with no compound.

Assay [2] has as its system DNA synthesis in mouse leukemia L1210 culture cell. As to the kind of experiment: Nucleic acid synthesis inhibiting action: DNA synthesis (14C-thymidine intake) in L1210 culture cells. Format: cell-based. The note with it: 1 h, 60 minutes, 10% bovine serum, 37° C., read-out: 50% Inhibiting Concentration (IC50), Inhibition of DNA Synthesis. The procedure: as §1
In assay [3] the test system is RNA synthesis in mouse leukemia L1210 culture cell. Briefly: Nucleic acid synthesis inhibiting action: RNA synthesis (14C-uridine intake) in L1210 culture cells. Format: cell-based. The conditions noted are these: 1 h, 60 minutes, 10% bovine serum, 37° C., read-out: 50% Inhibiting Concentration (IC50), Inhibition of RNA Synthesis. The procedure: as §1
Another assay relates to murine L1210 leukemia. Briefly: In vivo antitumor activity against murine L1210 leukemia in CDF1 mice. Here is the method:
The therapeutic effect of obelmycins were studied on CDF1 mice bearing L1210 leukemia, From 24 hours after 1×10^5 L1210 cells/animal were intraperitoneally transplanted to CDF1 mice, Obelmycins were intraperitoneally given everyday for 10 days. The prolongation of the survival time was calculated relative to control animals receiving physiological saline as 100.
Inoculation: 1×10^5 cells/mouse (ip)
Treatment: day 1 to 10, daily (ip)

[4] abbreviates: L1210 cells, RPM 11640 medium with 20% bovine serum, 37° C., read-out: 50% Inhibiting Concentration (IC50), Inhibition of Cell Proliferation.
[5] abbreviates: L1210, read-out: 50% Inhibiting Concentration (IC50), Inhibition of Cell Proliferation.
Setting [6] is: dose 3.1 μg/kg/day ip, daily day 1 to 10, CDF1 mice n=6, survival time relative to saline control as 100.

Values after ≈ are worked out from the molar mass of the structure shown. Read-outs that look alike come from different tables or passages of the source.

Take `CCC1(O)CC(OC2CC(N(C)C)C(O)C(C)O2)c2c(O)c3c(c(O)c2C1O)C(=O)c1c(O)ccc(O)c1C3=O` (stereo not shown) [Obelmycin A]: the IC50 is 0.001 µg/mL (≈ 0.00179 µM) in assay [1] (setting [4]), 0.58 µg/mL (≈ 1.04 µM) in assay [2] and 0.14 µg/mL (≈ 0.25 µM) in assay [3]. Further, the “Antitumor effect T C (%)” value in the assay with murine L1210 leukemia (ip, 0.1 mg/kg, 24 h) stood at 185%.
With `CCC1(O)CC(OC2CC(N(C)C)C(OC3CCC(OC4CCC(O)C(C)O4)C(C)O3)C(C)O2)c2c(O)c3c(c(O)c2C1OC1CC(N(C)C)C(OC2CCC(OC4CCC(O)C(C)O4)C(C)O2)C(C)O1)C(=O)c1c(O)ccc(O)c1C3=O` (stereo not shown) [Obelmycin B], the IC50 in assay [1] (setting [5]) came out at 0.0009 µg/mL (≈ 0.000767 µM); in assay [2], 0.26 µg/mL (≈ 0.222 µM); in assay [3], 0.025 µg/mL (≈ 0.0213 µM). Moreover, in the assay with murine L1210 leukemia (setting [6]), the “Antitumor effect T C (%)” value was 150%.
For `CCC1(O)CC(OC2CC(N(C)C)C(OC3CC(O)C(OC4CCC(O)C(C)O4)C(C)O3)C(C)O2)c2c(O)c3c(c(O)c2C1OC1CC(N(C)C)C(OC2CCC(OC4CCC(O)C(C)O4)C(C)O2)C(C)O1)C(=O)c1c(O)ccc(O)c1C3=O` (stereo not shown) [Obelmycin C], the IC50 came out at 0.001 µg/mL (≈ 0.000841 µM) in assay [1] (setting [5]), 0.38 µg/mL (≈ 0.32 µM) in assay [2] and 0.043 µg/mL (≈ 0.0362 µM) in assay [3]. The “Antitumor effect T C (%)” value in the assay with murine L1210 leukemia (setting [6]) worked out at 145%.
The matching figures for `CCC1(O)CC(OC2CC(N(C)C)C(OC3CC(O)C(OC4CCC(O)C(C)O4)C(C)O3)C(C)O2)c2c(O)c3c(c(O)c2C1OC1CC(N(C)C)C(OC2CC(O)C(OC4CCC(O)C(C)O4)C(C)O2)C(C)O1)C(=O)c1c(O)ccc(O)c1C3=O` (stereo not shown) [Obelmycin D]: 0.004 µg/mL (≈ 0.00332 µM), 1.2 µg/mL (≈ 0.996 µM), 0.175 µg/mL (≈ 0.145 µM) and 140%.
For the compound `CCC1(O)CCc2c(O)c3c(c(O)c2C1OC1CC(N(C)C)C(OC2CCC(OC4CCC(O)C(C)O4)C(C)O2)C(C)O1)C(=O)c1c(O)ccc(O)c1C3=O` (stereo not shown) [Obelmycin E], the figures for the IC50 in assay [1] (setting [5]), in assay [2] and in assay [3] were 0.062 µg/mL (≈ 0.0803 µM), 1.3 µg/mL (≈ 1.68 µM) and 0.78 µg/mL (≈ 1.01 µM), respectively. Besides, the “Antitumor effect T C (%)” value in the assay with murine L1210 leukemia (dose 12.5 μg/kg/day ip, daily day 1 to 10, CDF1 mice n=6, survival time relative to saline control as 100) worked out at 135%.
`CCC1(O)CCc2c(O)c3c(c(O)c2C1OC1CC(N(C)C)C(OC2CC(O)C(OC4CCC(O)C(C)O4)C(C)O2)C(C)O1)C(=O)c1c(O)ccc(O)c1C3=O` (stereo not shown) [Obelmycin F]: the IC50 stood at 0.092 µg/mL (≈ 0.117 µM) in assay [1] (setting [4]), 1.43 µg/mL (≈ 1.82 µM) in assay [2] and 0.6 µg/mL (≈ 0.762 µM) in assay [3]. Also, the “Antitumor effect T C (%)” value in the assay with murine L1210 leukemia (ip, 0.025 mg/kg, 24 h) was 130%.
As to `CCC1(O)CCc2c(O)c3c(c(O)c2C1OC1CC(N(C)C)C(O)C(C)O1)C(=O)c1c(O)ccc(O)c1C3=O` (stereo not shown) [Obelmycin G], the IC50 is 0.2 µg/mL (≈ 0.368 µM) in assay [1] (setting [4]), 1.5 µg/mL (≈ 2.76 µM) in assay [2] and 1.1 µg/mL (≈ 2.02 µM) in assay [3]. The “Antitumor effect T C (%)” value in the assay on murine L1210 leukemia (dose 200 μg/kg/day ip, daily day 1 to 10, CDF1 mice n=6, survival time relative to saline control as 100) worked out at 145%.

The values are drawn from patent US4734493A, “Novel anthracycline antibiotics” (Sanraku, Incorporated, priority 1985, dated 1988).
